Experimental findings from US6887896B1, “7-[(7-Alkoxy)-chrom-3-en-6-yl]-heptatrienoic acid and 7-[(3-alkoxy)-5,6-dihydronaphthalen-2-yl]-heptatrienoic acid derivatives having serum glucose reducing activity” (Allergan, Inc., priority 2003, dated 2005) are described below.

Series [1] addresses T1, RARα (Homo sapiens, UniProt P10276).
T1 sequence (P10276 1-462): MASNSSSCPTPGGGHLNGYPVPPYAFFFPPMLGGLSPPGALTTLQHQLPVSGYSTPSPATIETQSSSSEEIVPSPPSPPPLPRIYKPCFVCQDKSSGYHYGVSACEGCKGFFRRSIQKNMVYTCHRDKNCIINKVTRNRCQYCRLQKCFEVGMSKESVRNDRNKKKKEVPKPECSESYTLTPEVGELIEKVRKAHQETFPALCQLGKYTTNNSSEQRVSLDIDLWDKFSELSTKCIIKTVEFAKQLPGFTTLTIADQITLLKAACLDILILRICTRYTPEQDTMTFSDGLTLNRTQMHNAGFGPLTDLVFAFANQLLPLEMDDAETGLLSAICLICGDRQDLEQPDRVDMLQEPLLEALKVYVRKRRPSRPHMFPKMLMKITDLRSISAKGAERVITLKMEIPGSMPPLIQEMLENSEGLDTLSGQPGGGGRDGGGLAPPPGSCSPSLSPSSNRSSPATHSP
Put plainly: ligand binding assay, RARα. The conditions noted are these: for Ki: read-out: RAR Bind. Ki α; for Kd: Table 9 (Formula F), read-out: RAR α Kd. An excerpt: (§1) Specifically, one such assay is a chimeric receptor transactivation assay which tests for agonist-like activity in the R RAPE and RAR7 receptor subtypes, and which is based on work published by Feigner, P. L. and Holm, M (1989) Focus, 112 is described in detail in U.S. Pat. No. 5,455,265. The specification of U.S. Pat. No. 5,455,265 is hereby expressly incorporated by reference. A holoreceptor transactivation assay and a ligand binding assay which measure the antagonist/agonist like activity of the compounds of the invention, or their ability to bind to the several retinoid receptor subtypes, respectively, are described in published PCT Application No. WO WO93/11755 (particularly on pages 30-33 and 37-41) published on Jun. 24, 1993, the specification of which is also incorporated herein by reference. A detailed experimental procedure for holoreceptor transactivations has been described by Heyman et al. Cell 68, 397-406, (1992); Allegretto et al. J. Biol. Chem. 268, 26625-26633, and Mangelsdorf et al. The Retinoids: Biology, Chemistry and Medicine, pp 319-349, Raven Press Ltd., New York, which are expressly incorporated herein by reference. The results obtained in this assay are expressed in EC50 numbers, as they are also in the chimeric receptor transactivation assay. The results of the ligand binding assay are expressed in Ki numbers. (See Cheng et al. Biochemical Pharmacology Vol. 22 pp 3099-3108, expressly incorporated herein by reference.)
(§2) Generally speaking, in the tables disclosing the results of transactivation and binding assays the numbers in parentheses indicate efficacy as a percentage compared to the standard compound, (2E,4E,1′S,2′S)-3-methyl-5-[2′-methyl-2′-(5,5,8,8-tetramethyl-5,6,7,8-tetrahydro-naphthalen-2-yl)cyclopropyl]-penta-2,4-dienoic acid and the other numbers indicate the measured EC50 and K; in nanomolar concentration.

In series [2] the test system is ob/ob mice. The series can be described thus: serum glucose, triglycerides and T4 in ob/ob mice, drug mixed in control diet over 7 days. The following applies: 30 mg/kg per day in diet; for Glucose Day 0 / Triglycerides Day 0: day 0 (pre-treatment). The format is in vivo.
The target of series [3] is T2, RARα (Homo sapiens, UniProt P10276).
T2 sequence (P10276 183-417 limits assumed): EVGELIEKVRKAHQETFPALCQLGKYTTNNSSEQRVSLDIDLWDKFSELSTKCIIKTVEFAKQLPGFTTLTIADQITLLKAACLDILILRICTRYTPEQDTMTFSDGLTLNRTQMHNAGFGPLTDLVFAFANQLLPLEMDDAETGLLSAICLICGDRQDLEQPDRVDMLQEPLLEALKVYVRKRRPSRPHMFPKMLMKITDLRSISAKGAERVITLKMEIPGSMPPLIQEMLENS
Put plainly: chimeric receptor transactivation assay, RARα. The conditions noted are these: for EC50: chimeric receptor transactivation, read-out: RAR Trans. EC50 α; for Emax: percentage compared to the standard compound, read-out: RAR Trans. efficacy (number in parentheses) α. Type of series: cell-based.
Text: as §1
Efficacy in a transactivation assay is expressed as a percentage of the maximum potency attained by the compound compared to a standard which, in this case, is the compound named (2E,4E,1′S,2′S)-3-methyl-5-[2′-methyl-2′-(5,5,8,8-tetramethyl-5,6,7,8-tetrahydro-naphthalen-2-yl)-cyclopropyl]-penta-2,4-dienoic acid. This standard compound is described in U.S. Pat. No. 6,114,533.
The specification of this application for patent is organized in several sections in accordance with structural Formulas A through F each of which discloses a group of preferred compounds within the scope of the invention. Tables that disclose the activity of certain exemplary compounds of the invention in the above-described RXR receptor transactivation and binding assays are found in the corresponding sections. […] The transactivation data pertaining to the activation of RXR receptors were obtained in the holoreceptor assay.
as §2

For series [4], the target named is T3, RXRγ (UniProt P28705).
T3 sequence (P28705 1-463): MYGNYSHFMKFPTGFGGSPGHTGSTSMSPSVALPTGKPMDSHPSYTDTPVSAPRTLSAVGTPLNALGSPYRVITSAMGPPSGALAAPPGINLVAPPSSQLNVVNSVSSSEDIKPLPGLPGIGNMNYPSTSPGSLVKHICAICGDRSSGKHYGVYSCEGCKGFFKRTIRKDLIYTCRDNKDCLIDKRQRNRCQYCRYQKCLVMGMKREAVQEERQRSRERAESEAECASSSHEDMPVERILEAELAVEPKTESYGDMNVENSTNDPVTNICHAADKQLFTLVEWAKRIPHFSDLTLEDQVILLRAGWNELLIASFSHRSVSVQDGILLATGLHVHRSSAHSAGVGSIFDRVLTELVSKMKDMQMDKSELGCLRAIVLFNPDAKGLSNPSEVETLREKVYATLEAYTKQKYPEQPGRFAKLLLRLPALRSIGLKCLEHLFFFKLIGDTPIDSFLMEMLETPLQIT
The series can be described thus: ligand binding assay, RXRγ. The conditions noted are these: for Kd: Table 9 (Formula F), read-out: RXR γ Kd.
Text: as §1, §2

On to `CCOc1c(\C(C)=C/C=C/C(C)=C/C(=O)O)cc2c(c1Cl)OC(C)(C)C=C2C(C)C` [Compound 50, 7-(8-Chloro-4-isopropyl-7-ethoxy-2,2-dimethyl-2H-chromen-6-yl)-3-methyl-octa-2E,4E,6Z-trienoic acid], for which, in series [1], the Ki was 738 nM. Besides, in series [2], the “Glucose Day 3, 3 h” value came to 209 mg/dL; the “Glucose Day 6, 3 h” value came out at 237 mg/dL; the “T4 Day 7” value is 4.5 µg/dL; the “Triglycerides Day 3, 3 h” value was found to be 90 ± 33 mg/dL. Further, in series [2], the “Glucose Day 0” value worked out at 288 mg/dL and the “Triglycerides Day 0” value is 122 mg/dL.
Consider `COc1cc2c(cc1\C(C)=C/C=C/C(C)=C/C(=O)O)C(C(C)C)=CC(C)(C)O2` [Compound 43, 7-(4-Isopropyl-7-methoxy-2,2-dimethyl-2H-chromen-6-yl)-3-methyl-octa-2E,4E,6Z-trienoic acid], for which, in series [3], the EC50 stood at 13 nM and the Emax was 5%. Moreover, the inhibitory constant (Ki) in series [1] stood at 243 nM.
As to `CC(/C=C/C(F)=C(/C)c1cc2c(c(Br)c1OC(C)C)C(C)(C)CC=C2C(C)C)=C\C(=O)O` [Compound A-172, (2E,4E,6E)-7-(4-Bromo-3-isopropoxy-8-isopropyl-5,5-dimethyl-5,6-dihydro-naphthalen-2-yl)-6-fluoro-3-methyl-octa-2,4,6-trienoic acid], the Kd in series [1] turned out to be 141 nM; in series [4] it was 221 nM.
Consider `CCOc1cc2c(cc1\C(C)=C/C=C/C(C)=C/C(=O)O)C(CC)=CC(C)(C)O2` [Compound 45, 7-(7-Ethoxy-4-ethyl-2,2-dimethyl-2H-chromen-6-yl)-3-methyl-octa-2E,4E,6Z-trienoic acid], for which, in series [3], the half-maximal effective concentration (EC50) turned out to be 121 nM and the Emax came out at 6%. Also, the inhibition constant Ki in series [1] came to 3 nM.
Take `CCOc1cc2c(cc1\C(C)=C(F)/C=C/C(C)=C/C(=O)O)C(C(C)C)=CCC2(C)C` [Compound A-79, (2E,4E,6E)-6-Fluoro-3-(4,4-dimethylethoxy-1-isopropyl-3,4-dihydronaphthalen-7-yl)-3-methyl-2.4,6-octa-trienoic acid]: the inhibitory constant (Ki) amounted to 615 nM in series [1] and 88 nM in series [4] (read-out: RXR Bind Ki γ).
Turning to `CCOc1c(\C(C)=C(F)/C=C/C(C)=C/C(=O)O)cc2c(c1Cl)OC(C)(C)C=C2C(C)C` [Compound 172, 7-(8-Chloro-4-isopropyl-7-ethoxy-2,2-dimethyl-2H-chromen-6-yl)-6-fluoro-3-methyl-octa-2E,4E,6E-trienoic acid], the inhibitory constant (Ki) in series [1] is 404 nM. In addition, in series [2], the “Glucose Day 3, 3 h” value is 193 mg/dL; the “Glucose Day 6, 3 h” value came out at 206 mg/dL; the “T4 Day 7” value is 4.5 µg/dL; the “Triglycerides Day 3, 3 h” value turned out to be 68 ± 22 mg/dL. Moreover, in series [2], the “Glucose Day 0” value amounted to 292 mg/dL and the “Triglycerides Day 0” value was found to be 107 mg/dL.
`CC/C(=C(F)/C=C/C(C)=C/C(=O)O)c1cc2c(c(Cl)c1OC)OC(C)(C)C=C2C(C)C` [Compound 171, 7-(8-Chloro-4-isopropyl-7-methoxy-2,2-dimethyl-2H-chromen-6-yl)-6-fluoro-3-methyl-nona-2E,4E,6E-trienoic acid]: in series [3], the 50% effective concentration (EC50) was above 1000 nM. Besides, the inhibition constant (Ki) in series [1] amounted to 47 nM.
As for `CCOc1cc2c(cc1\C(CC)=C(F)/C=C/C(C)=C/C(=O)O)C(CC)=CCC2(C)C` [Compound A-78, (2E,4E,6E)-7-(3-Ethoxy-8-ethyl-5,5-dimethyl-5,6-dihydro-naphthalen-2-yl)-6-fluoro-3-methyl-nona-2,4,6-trienoic acid], in series [3], the half-maximal effective concentration (EC50) was 29 nM and the Emax came to 10%. Besides, the Ki in series [1] came out at 180 nM.
The like results for `CCOc1cc2c(cc1\C(C)=C(F)/C=C/C(C)=C/C(=O)O)C(c1ccccc1)=CC(C)(C)O2` [Compound 127, (2E,4E,6E)-7-(7-Ethoxy-2,2-dimethyl-4-phenyl-2H-chromen-6-yl)-6-fluoro-3-methyl-octa-2,4,6-trienoic acid] were, in that order, 245 nM, 26% and 3700 nM.
For the compound `CC/C(=C(F)/C=C/C(C)=C/C(=O)O)c1cc2c(cc1OC)OC(C)(C)C=C2C` [Compound 129, 6-Fluoro-7-(7-methoxy-2,2,4-trimethyl-2H-chromen-6-yl)-3-methyl-nona-2E,4E,6E-trienoic acid], in series [3], the EC50 is above 10000 nM. In addition, the inhibition constant Ki in series [1] turned out to be 177 nM.
With `CC/C(=C(F)/C=C/C(C)=C/C(=O)O)c1cc2c(cc1OC)OC(C)(C)C=C2C(C)C` [Compound 130, 6-Fluoro-7-(4-isopropyl-7-methoxy-2,2-dimethyl-2H-chromen-6-yl)-3-methyl-nona-2E,4E,6E-trienoic acid], in series [3], the EC50 turned out to be 218 nM and the Emax was determined as 8%. In addition, the Ki in series [1] worked out at 133 nM.
Take `CCOc1c(\C(C)=C(F)/C=C/C(C)=C/C(=O)O)cc2c(c1Br)C(C)(C)CC=C2C(C)(C)C` [Compound A-174, (2E,4E,6E)-7-(4-Bromo-8-tert-butyl-3-ethoxy-5,5-dimethyl-5,6-dihydro-naphthalen-2-yl)-6-fluoro-3-methyl-octa-2,4,6-trienoic acid]: the Kd turned out to be 997 nM in series [1] and 34 nM in series [4].
As for `CCCOc1cc2c(cc1\C(C)=C(F)/C=C/C(C)=C/C(=O)O)C(c1ccccc1)=CC(C)(C)O2` [Compound 128, (2E,4E,6E)-7-(2,2-Dimethyl-4-phenyl-7-propoxy-2H-chromen-6-yl)-6-fluoro-3-methyl-octa-2,4,6-trienoic acid], in series [3], the EC50 stood at 14 nM and the Emax is 25%. Besides, the inhibitory constant (Ki) in series [1] worked out at 302 nM.
In the case of `CCOc1c(\C(CC)=C(F)/C=C/C(C)=C/C(=O)O)cc2c(c1Br)C(C)(C)CC=C2C(C)CC` (centres unmarked) [Compound A-176, (2E,4E,6E)-7-(4-Bromo-8-sec-butyl-3-ethoxy-5,5-methyl-5,6-dihydro-naphthalen-2-yl)-6-fluoro-3-methyl-nona-2,4,6-trienoic acid], the figures for the dissociation constant Kd in series [1] and in series [4] were 32 nM and 122 nM, respectively.

Broadly, the Ki is the dissociation constant of the complex between target and ligand, obtained from inhibition or displacement. In general, EC50 refers to the concentration giving half of the maximal effect. By Kd is commonly meant the equilibrium constant for the complex coming apart.
